What was measured:
in vitro [1] = conditions: human, Caco-2
in vitro [2] = conditions: human, Caco-2; remark: listed apart in the source

Row | Papp A→B (in vitro [1]) [×10⁻⁶ cm/s] | Papp (in vitro [2]) [×10⁻⁶ cm/s] | Compound
1 | 0.333 | 0.333 | CNC(=O)[C@H](Cc1ccc2ccccc2c1)N1CCN(C(=O)[C@H](N)Cc2ccc(F)cc2)[C@@H](CCNC(=N)N)C1=O
2 | 6.5 | 15.2 | C=CC[C@H]1C(=O)N([C@@H](Cc2ccc3ccccc3c2)C(=O)NC)CCN1C(=O)[C@H](N)Cc1ccc(F)cc1

Reference: ChEMBL document CHEMBL1140090, “Discovery of orally bioavailable 1,3,4-trisubstituted 2-oxopiperazine-based melanocortin-4 receptor agonists as potential antiobesity agents” (J Med Chem, 2008)
